# Experimental data from patent US10774102B2, “Galactoside inhibitor of galectins” (Galecto Biotech AB, priority 2015, dated 2020).
# Biological target: galectin-3 (Homo sapiens (Human), UniProt P17931)
# Assay: Fluorescence anisotropy assay of galectin-3 affinity (compound inhibits galectin binding to a fluorescein tagged saccharide probe)
# Conditions: high affinity probe, 50 nM galectin-3, 100 nM albumin
# Experimental: 100 nM albumin was included as a carrier to prevent protein loss at such low concentration of galectin.
# galectin-3, sequence (P17931 whole entry): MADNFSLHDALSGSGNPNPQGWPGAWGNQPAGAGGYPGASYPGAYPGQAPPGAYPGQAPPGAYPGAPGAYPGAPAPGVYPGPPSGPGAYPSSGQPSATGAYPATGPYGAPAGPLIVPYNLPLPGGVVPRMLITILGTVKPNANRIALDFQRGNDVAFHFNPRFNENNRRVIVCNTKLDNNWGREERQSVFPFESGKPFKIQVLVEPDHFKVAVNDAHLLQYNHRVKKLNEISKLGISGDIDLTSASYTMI
row,SMILES,Kd [nM]
1,"Cc1cccc(C)c1S[C@H]1O[C@H](CO)[C@H](O)[C@H](n2cc(-c3cc(F)c(F)c(F)c3)nn2)[C@H]1O [Example 17, 2,6-Dimethylphenyl 3-deoxy-3-[4-(3,4,5-trifluorophenyl)-1H-1,2,3-triazol-1-yl]-1-thio-α-D-galactopyranoside]",1580
2,"OC[C@H]1O[C@H](Sc2ccc(F)c(Br)c2)[C@H](O)[C@@H](n2cc(-c3cc(F)c(F)c(F)c3)nn2)[C@H]1O [Example 60, 3-Bromo-4-fluorophenyl 3-deoxy-3-[4-(3,4,5-trifluorophenyl)-1H-1,2,3-triazol-1-yl]-1-thio-α-D-galactopyranoside]",24
3,"OC[C@H]1O[C@H](Sc2cccc(Cl)c2Cl)[C@H](O)[C@@H](n2cc(-c3cc(F)c(F)c(F)c3)nn2)[C@H]1O [Example 8, 2,3-Dichlorophenyl 3-deoxy-3-[4-(3,4,5-trifluorophenyl)-1H-1,2,3-triazol-1-yl]-1-thio-α-D-galactopyranoside]",530
4,"O=S(=O)(c1ccc(Cl)c(Cl)c1)[C@H]1O[C@H](CO)[C@H](O)[C@H](n2cc(-c3cc(F)c(F)c(F)c3)nn2)[C@H]1O [Example 25, 3,4-Dichlorophenyl 3-deoxy-3-[4-(3,4,5-trifluorophenyl)-1H-1,2,3-triazol-1-yl]-α-D-galactopyranosyl sulfone]",62
5,"[O-][S+](c1cncc(Br)c1)[C@H]1O[C@H](CO)[C@H](O)[C@H](n2cc(-c3cc(F)c(F)c(F)c3)nn2)[C@H]1O (single isomer, unassigned; isomer 1) [Example 90, 5-Bromopyridin-3-yl 3-deoxy-3-[4-(3,4,5-trifluorophenyl)-1H-1,2,3-triazol-1-yl]-α-D-galactopyranosyl sulfoxide, isomer 1]",28
6,"[O-][S+](c1cncc(Cl)c1)[C@H]1OC(CO)[C@H](O)[C@H](n2cc(-c3cc(F)c(F)c(F)c3)nn2)C1O (single isomer, unassigned; isomer 2) [Example 94, 5-Chloropyridin-3-yl 3-deoxy-3-[4-(3,4,5-trifluorophenyl)-1H-1,2,3-triazol-1-yl]-α-D-galactopyranosyl sulfoxide, isomer 2]",41
7,"[O-][S+](c1cncc(Cl)c1)[C@H]1OC(CO)[C@H](O)[C@H](n2cc(-c3cc(F)c(F)c(F)c3)nn2)C1O (single isomer, unassigned; isomer 1) [Example 93, 5-Chloropyridin-3-yl 3-deoxy-3-[4-(3,4,5-trifluorophenyl)-1H-1,2,3-triazol-1-yl]-α-D-galactopyranosyl sulfoxide, isomer 1]",106
8,"OC[C@H]1O[C@H](Oc2ccc(Cl)cc2)[C@H](O)[C@@H](n2cc(-c3cc(F)c(F)c(F)c3)nn2)[C@H]1O [Example 34, 4-Chlorophenyl 3-deoxy-3-[4-(3,4,5-trifluorophenyl)-1H-1,2,3-triazol-1-yl]-α-D-galactopyranoside]",570
9,"OC[C@H]1O[C@H](Sc2cccc(C(F)(F)F)c2)[C@H](O)[C@@H](n2cc(-c3cc(F)c(F)c(F)c3)nn2)[C@H]1O [Example 14, 3-(Trifluoromethyl)phenyl 3-deoxy-3-[4-(3,4,5-trifluorophenyl)-1H-1,2,3-triazol-1-yl]-1-thio-α-D-galactopyranoside]",130
10,"OC[C@H]1O[C@H](Sc2ccncc2)[C@H](O)[C@@H](n2cc(-c3cc(F)c(F)c(F)c3)nn2)[C@H]1O [Example 4, 4-Pyridyl 3-deoxy-3-[4-(3,4,5-trifluorophenyl)-1H-1,2,3-triazol-1-yl]-1-thio-α-D-galactopyranoside]",190
11,"OCC1O[C@H](SC2CCCC(F)(F)C2)C(O)[C@@H](n2cc(-c3cc(F)c(F)c(F)c3)nn2)[C@H]1O (stereo partly drawn) [Example 76, 3,3′-difluoro-cyklohexyl 3-deoxy-3-[4-(3,4,5-trifluorophenyl)-1H-1,2,3-triazol-1-yl]-1-thio-α-D-galactopyranoside]",240
12,"O=S(=O)(c1ccc(Cl)c(Cl)c1)[C@H]1O[C@H](CO)[C@H](O)[C@H](n2cc(-c3c(F)c(F)c(F)c(F)c3F)nn2)[C@H]1O [Example 53, 3,4-Dichlorophenyl 3-deoxy-3-[4-(2,3,4,5,6-pentafluorophenyl)-1H-1,2,3-triazol-1-yl]-α-D-galactopyranosyl sulfone]",13
13,"OC[C@H]1O[C@H](Oc2ccccc2)[C@H](O)[C@@H](n2cc(-c3cc(F)c(F)c(F)c3)nn2)[C@H]1O [Example 32, Phenyl 3-deoxy-3-[4-(3,4,5-trifluorophenyl)-1H-1,2,3-triazol-1-yl]-α-D-galactopyranoside]",1000
14,"OC[C@H]1O[C@H](Sc2cc(Cl)c(Cl)cc2Cl)[C@H](O)[C@@H](n2cc(-c3cc(F)c(F)c(F)c3)nn2)[C@H]1O [Example 36, 2,4,5-Trichlorophenyl 3-deoxy-3-[4-(3,4,5-trifluorophenyl)-1H-1,2,3-triazol-1-yl]-1-thio-α-D-galactopyranoside]",60
15,"OC[C@H]1O[C@H](Sc2ccc(F)c(Cl)c2)[C@H](O)[C@@H](n2cc(-c3cc(F)c(F)c(F)c3)nn2)[C@H]1O [Example 28, 3-Chloro-4-fluorophenyl 3-deoxy-3-[4-(3,4,5-trifluorophenyl)-1H-1,2,3-triazol-1-yl]-1-thio-α-D-galactopyranoside]",48
16,"Cc1ccc(S[C@H]2O[C@H](CO)[C@H](O)[C@H](n3cc(-c4cc(F)c(F)c(F)c4)nn3)[C@H]2O)cc1C [Example 1, 3,4-Dimethylphenyl 3-deoxy-3-[4-(3,4,5-trifluorophenyl)-1H-1,2,3-triazol-1-yl]-1-thio-α-D-galactopyranoside]",150
17,"CCOc1cccc(S[C@H]2O[C@H](CO)[C@H](O)[C@H](n3cc(-c4cc(F)c(F)c(F)c4)nn3)[C@H]2O)c1 [Example 3, 3-Ethoxyphenyl 3-deoxy-3-[4-(3,4,5-trifluorophenyl)-1H-1,2,3-triazol-1-yl]-1-thio-α-D-galactopyranoside]",420
18,"OCC1O[C@H](Sc2ccc3ccccc3c2)C(O)[C@@H](n2cc(-c3cc(F)c(F)c(F)c3)nn2)[C@H]1O (stereo partly drawn) [Example 12, 2-Naphtyl 3-deoxy-3-[4-(3,4,5-trifluorophenyl)-1H-1,2,3-triazol-1-yl]-1-thio-α-D-galactopyranoside]",180
19,"OC[C@H]1O[C@H](Sc2ccc(Cl)cc2)[C@H](O)[C@@H](n2cc(-c3cc(F)c(F)c(F)c3)nn2)[C@H]1O [Example 23, 4-Chlorophenyl 3-deoxy-3-[4-(3,4,5-trifluorophenyl)-1H-1,2,3-triazol-1-yl]-1-thio-α-D-galactopyranoside]",200
20,"O=c1oc2ccc(F)c(F)c2cc1CO[C@@H]1[C@@H](O)[C@@H](Sc2ccc(Cl)c(Cl)c2)O[C@H](CO)[C@@H]1O [Example 99, 3,4-Dichlorophenyl 3-O-[(5,6-Difluoro-2-oxo-3-chromenyl)methyl]-1-thio-α-D-galactopyranoside]",920
21,"[O-][S+](c1cncc(Br)c1)[C@H]1O[C@H](CO)[C@H](O)[C@H](n2cc(-c3cc(F)c(F)c(F)c3)nn2)[C@H]1O (single isomer, unassigned; isomer 2) [Example 91, 5-Bromopyridin-3-yl 3-deoxy-3-[4-(3,4,5-trifluorophenyl)-1H-1,2,3-triazol-1-yl]-α-D-galactopyranosyl sulfoxide, isomer 2]",130
22,"OC[C@H]1O[C@H](Sc2ccc(OC(F)(F)F)cc2)[C@H](O)[C@@H](n2cc(-c3cc(F)c(F)c(F)c3)nn2)[C@H]1O [Example 31, 4-Trifluoromethoxyphenyl 3-deoxy-3-[4-(3,4,5-trifluorophenyl)-1H-1,2,3-triazol-1-yl]-1-thio-α-D-galactopyranoside]",280
23,"OCC1O[C@H](SCc2ccccc2)C(O)[C@@H](n2cc(-c3cc(F)c(F)c(F)c3)nn2)[C@H]1O (stereo partly drawn) [Example 10, Benzyl 3-deoxy-1-thio-3-[4-(3,4,5-trifluorophenyl)-1H-1,2,3-triazol-1-yl]-1-thio-α-D-galactopyranoside]",1130
24,"OC[C@H]1O[C@H](Sc2ccc(F)cc2)[C@H](O)[C@@H](n2cc(-c3cc(F)c(F)c(F)c3)nn2)[C@H]1O [Example 30, 4-Fluorophenyl 3-deoxy-3-[4-(3,4,5-trifluorophenyl)-1H-1,2,3-triazol-1-yl]-1-thio-α-D-galactopyranoside]",270
25,"OC[C@H]1O[C@H](Oc2cccc(Cl)c2)[C@H](O)[C@@H](n2cc(-c3cc(F)c(F)c(F)c3)nn2)[C@H]1O [Example 33, 3-Chlorophenyl 3-deoxy-3-[4-(3,4,5-trifluorophenyl)-1H-1,2,3-triazol-1-yl]-α-D-galactopyranoside]",250
26,"OC[C@H]1O[C@H](Sc2cc(Cl)ccc2Cl)[C@H](O)[C@@H](n2cc(-c3cc(F)c(F)c(F)c3)nn2)[C@H]1O [Example 37, 2,5-Dichlorophenyl 3-deoxy-3-[4-(3,4,5-trifluorophenyl)-1H-1,2,3-triazol-1-yl]-1-thio-α-D-galactopyranoside]",84
27,"O=C(N[C@@H]1C(O)[C@@H](Sc2ccc(Cl)c(Cl)c2)OC(CO)[C@@H]1O)c1cc(F)c(F)c(F)c1 (stereo partly drawn) [Example 96, 3,4-dichlorophenyl-3-deoxy-3-(3,4,5-trifluorobenzamido)-1-thio-α-D-galactopyranoside]",3500
28,"O=S(=O)(c1cncc(Br)c1)[C@H]1O[C@H](CO)[C@H](O)[C@H](n2cc(-c3cc(F)c(F)c(F)c3)nn2)[C@H]1O [Example 92, 5-Bromopyridin-3-yl 3-deoxy-3-[4-(3,4,5-trifluorophenyl)-1H-1,2,3-triazol-1-yl]-α-D-galactopyranosyl sulfone]",31
29,"OC[C@H]1O[C@H](Oc2ccc(Cl)c(Cl)c2)[C@H](O)[C@@H](n2cc(-c3cc(F)c(F)c(F)c3)nn2)[C@H]1O [Example 22, 3,4-Dichlorophenyl 3-deoxy-3-[4-(3,4,5-trifluorophenyl)-1H-1,2,3-triazol-1-yl]-α-D-galactopyranoside]",490
30,"OC[C@H]1O[C@H](Sc2ccc(Br)cc2)[C@H](O)[C@@H](n2cc(-c3cc(F)c(F)c(F)c3)nn2)[C@H]1O [Example 15, 4-Bromophenyl 3-deoxy-3-[4-(3,4,5-trifluorophenyl)-1H-1,2,3-triazol-1-yl]-1-thio-α-D-galactopyranoside]",520
